Experimental data taken from PubChem BioAssay (NCI).
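A five-concentration, 48-hour dose response in 96-well plates underlies each endpoint, interpolated linearly between surrounding concentrations. GI50 marks 50% less growth. TGI is the concentration that stops growth completely.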

Tests used:
Assay in all cases: DTP human tumour cell line panel, 48 h
HOP-62 NSCLC = test system: HOP-62 NSCLC
SNB-19 CNS = test system: SNB-19 CNS
NCI-H226 lung = test system: NCI-H226 lung
RXF 393 renal = test system: RXF 393 renal
SK-MEL-5 melanoma = test system: SK-MEL-5 melanoma
786-0 renal = test system: 786-0 renal
CCRF-CEM leukemia = test system: CCRF-CEM leukemia
HOP-92 NSCLC = test system: HOP-92 NSCLC
TK-10 renal = test system: TK-10 renal
A498 renal = test system: A498 renal
MOLT-4 leukemia = test system: MOLT-4 leukemia
IGROV1 ovarian = test system: IGROV1 ovarian
HS 578T breast = test system: HS 578T breast
BT-549 breast = test system: BT-549 breast
SR leukemia = test system: SR leukemia
SK-MEL-28 melanoma = test system: SK-MEL-28 melanoma
MDA-MB-231 breast = test system: MDA-MB-231 breast
MCF7 breast = test system: MCF7 breast
UACC-257 melanoma = test system: UACC-257 melanoma
KM12 colon = test system: KM12 colon
A549 NSCLC = test system: A549 NSCLC
SNB-75 CNS = test system: SNB-75 CNS
T-47D breast = test system: T-47D breast
HL-60(TB) leukemia = test system: HL-60(TB) leukemia
M14 melanoma = test system: M14 melanoma
NCI-H522 lung = test system: NCI-H522 lung
DU-145 prostate = test system: DU-145 prostate
NCI-H23 lung = test system: NCI-H23 lung
SW-620 colon = test system: SW-620 colon
U251 CNS = test system: U251 CNS
HCC-2998 colon = test system: HCC-2998 colon
NCI/ADR-RES ovarian = test system: NCI/ADR-RES ovarian
MDA-MB-435 = test system: MDA-MB-435
MALME-3M melanoma = test system: MALME-3M melanoma
EKVX NSCLC = test system: EKVX NSCLC
SF-268 CNS = test system: SF-268 CNS
PC-3 prostate = test system: PC-3 prostate
CAKI-1 renal = test system: CAKI-1 renal
NCI-H460 lung = test system: NCI-H460 lung
HT29 colon = test system: HT29 colon
UACC-62 melanoma = test system: UACC-62 melanoma
COLO 205 colon = test system: COLO 205 colon
HCT-116 colon = test system: HCT-116 colon
SK-MEL-2 melanoma = test system: SK-MEL-2 melanoma
SK-OV-3 ovarian = test system: SK-OV-3 ovarian
HCT-15 colon = test system: HCT-15 colon
OVCAR-4 ovarian = test system: OVCAR-4 ovarian
UO-31 renal = test system: UO-31 renal
SN12C renal = test system: SN12C renal
OVCAR-8 ovarian = test system: OVCAR-8 ovarian
K-562 leukemia = test system: K-562 leukemia
SF-539 CNS = test system: SF-539 CNS
OVCAR-5 ovarian = test system: OVCAR-5 ovarian

**Q.** How did the GI50 (HOP-62 NSCLC) turn out when C#CCNC1CCC(c2csc(C#C)n2)=C1C (stereo unspecified) was run?
**A.** 1.89 µM

**Q.** What about the TGI (HOP-62 NSCLC) of the same molecule?
**A.** 4.98 µM

**Q.** What about the GI50 (SNB-19 CNS) of the same molecule?
**A.** 4.33 µM

**Q.** What about the TGI (SNB-19 CNS) of the same molecule?
**A.** > 100 µM

**Q.** And the GI50 (NCI-H226 lung)?
**A.** 11.4 µM

**Q.** And the TGI (NCI-H226 lung)?
**A.** > 100 µM

**Q.** What about the GI50 (RXF 393 renal) of the same molecule?
**A.** 2.66 µM

**Q.** And the TGI (RXF 393 renal)?
**A.** 9.49 µM

**Q.** And the GI50 (SK-MEL-5 melanoma)?
**A.** 7.98 µM

**Q.** What about the TGI (SK-MEL-5 melanoma) of the same molecule?
**A.** 24.2 µM

**Q.** What about the GI50 (786-0 renal) of the same molecule?
**A.** 0.195 µM

**Q.** What about the TGI (786-0 renal) of the same molecule?
**A.** 0.368 µM

**Q.** And the GI50 (CCRF-CEM leukemia)?
**A.** 0.922 µM

**Q.** What about the TGI (CCRF-CEM leukemia) of the same molecule?
**A.** 4.94 µM

**Q.** What about the GI50 (HOP-92 NSCLC) of the same molecule?
**A.** 1.21 µM

**Q.** And the TGI (HOP-92 NSCLC)?
**A.** 2.91 µM

**Q.** What about the GI50 (TK-10 renal) of the same molecule?
**A.** > 100 µM

**Q.** And the TGI (TK-10 renal)?
**A.** > 100 µM

**Q.** What about the GI50 (A498 renal) of the same molecule?
**A.** 3.9 µM

**Q.** What about the TGI (A498 renal) of the same molecule?
**A.** 17.6 µM

**Q.** What about the GI50 (MOLT-4 leukemia) of the same molecule?
**A.** 5.32 µM

**Q.** What about the TGI (MOLT-4 leukemia) of the same molecule?
**A.** 83.8 µM

**Q.** What about the GI50 (IGROV1 ovarian) of the same molecule?
**A.** 0.183 µM

**Q.** And the TGI (IGROV1 ovarian)?
**A.** 0.391 µM

**Q.** What about the GI50 (HS 578T breast) of the same molecule?
**A.** 2.99 µM

**Q.** What about the TGI (HS 578T breast) of the same molecule?
**A.** 36.6 µM

**Q.** And the GI50 (BT-549 breast)?
**A.** 1.8 µM

**Q.** What about the TGI (BT-549 breast) of the same molecule?
**A.** 3.58 µM

**Q.** What about the GI50 (SR leukemia) of the same molecule?
**A.** 1.3 µM

**Q.** What about the TGI (SR leukemia) of the same molecule?
**A.** 8.24 µM

**Q.** And the GI50 (SK-MEL-28 melanoma)?
**A.** 25.1 µM

**Q.** What about the TGI (SK-MEL-28 melanoma) of the same molecule?
**A.** > 100 µM

**Q.** And the GI50 (MDA-MB-231 breast)?
**A.** 1.56 µM

**Q.** And the TGI (MDA-MB-231 breast)?
**A.** 3.98 µM

**Q.** And the GI50 (MCF7 breast)?
**A.** 3.41 µM

**Q.** And the TGI (MCF7 breast)?
**A.** 18.3 µM

**Q.** And the GI50 (UACC-257 melanoma)?
**A.** 32.1 µM

**Q.** And the TGI (UACC-257 melanoma)?
**A.** > 100 µM

**Q.** And the GI50 (KM12 colon)?
**A.** 9.09 µM

**Q.** What about the TGI (KM12 colon) of the same molecule?
**A.** > 100 µM

**Q.** What about the GI50 (A549 NSCLC) of the same molecule?
**A.** 10.3 µM

**Q.** And the TGI (A549 NSCLC)?
**A.** > 100 µM

**Q.** What about the GI50 (SNB-75 CNS) of the same molecule?
**A.** 1.05 µM

**Q.** What about the TGI (SNB-75 CNS) of the same molecule?
**A.** 2.24 µM

**Q.** What about the GI50 (T-47D breast) of the same molecule?
**A.** 3.88 µM

**Q.** What about the TGI (T-47D breast) of the same molecule?
**A.** > 100 µM

**Q.** And the GI50 (HL-60(TB) leukemia)?
**A.** 2.3 µM

**Q.** And the TGI (HL-60(TB) leukemia)?
**A.** 5.29 µM

**Q.** And the GI50 (M14 melanoma)?
**A.** 4.22 µM

**Q.** What about the TGI (M14 melanoma) of the same molecule?
**A.** 90.6 µM

**Q.** What about the GI50 (NCI-H522 lung) of the same molecule?
**A.** 1.83 µM

**Q.** What about the TGI (NCI-H522 lung) of the same molecule?
**A.** 3.85 µM

**Q.** What about the GI50 (DU-145 prostate) of the same molecule?
**A.** 5.97 µM

**Q.** What about the TGI (DU-145 prostate) of the same molecule?
**A.** > 100 µM

**Q.** And the GI50 (NCI-H23 lung)?
**A.** 0.469 µM

**Q.** And the TGI (NCI-H23 lung)?
**A.** 1.87 µM

**Q.** And the GI50 (SW-620 colon)?
**A.** 8 µM

**Q.** What about the TGI (SW-620 colon) of the same molecule?
**A.** 27.8 µM

**Q.** What about the GI50 (U251 CNS) of the same molecule?
**A.** 2.3 µM

**Q.** What about the TGI (U251 CNS) of the same molecule?
**A.** 6 µM

**Q.** What about the GI50 (HCC-2998 colon) of the same molecule?
**A.** 13.3 µM

**Q.** And the TGI (HCC-2998 colon)?
**A.** 28.6 µM

**Q.** And the GI50 (NCI/ADR-RES ovarian)?
**A.** 6.11 µM

**Q.** What about the TGI (NCI/ADR-RES ovarian) of the same molecule?
**A.** > 100 µM

**Q.** What about the GI50 (MDA-MB-435) of the same molecule?
**A.** 16 µM

**Q.** And the TGI (MDA-MB-435)?
**A.** 67 µM

**Q.** What about the GI50 (MALME-3M melanoma) of the same molecule?
**A.** 1.68 µM

**Q.** What about the TGI (MALME-3M melanoma) of the same molecule?
**A.** 3.37 µM

**Q.** And the GI50 (EKVX NSCLC)?
**A.** 2.51 µM

**Q.** And the TGI (EKVX NSCLC)?
**A.** 46.9 µM

**Q.** What about the GI50 (SF-268 CNS) of the same molecule?
**A.** 2.59 µM

**Q.** And the TGI (SF-268 CNS)?
**A.** 8.27 µM

**Q.** And the GI50 (PC-3 prostate)?
**A.** 3.79 µM

**Q.** And the TGI (PC-3 prostate)?
**A.** > 100 µM

**Q.** And the GI50 (CAKI-1 renal)?
**A.** 2.11 µM

**Q.** What about the TGI (CAKI-1 renal) of the same molecule?
**A.** 11.5 µM

**Q.** And the GI50 (NCI-H460 lung)?
**A.** 4.65 µM

**Q.** And the TGI (NCI-H460 lung)?
**A.** > 100 µM

**Q.** And the GI50 (HT29 colon)?
**A.** 2.88 µM

**Q.** And the TGI (HT29 colon)?
**A.** 10.3 µM

**Q.** What about the GI50 (UACC-62 melanoma) of the same molecule?
**A.** 9.74 µM

**Q.** What about the TGI (UACC-62 melanoma) of the same molecule?
**A.** > 100 µM

**Q.** What about the GI50 (COLO 205 colon) of the same molecule?
**A.** 17.1 µM

**Q.** And the TGI (COLO 205 colon)?
**A.** 39.1 µM

**Q.** What about the GI50 (HCT-116 colon) of the same molecule?
**A.** 4.79 µM

**Q.** What about the TGI (HCT-116 colon) of the same molecule?
**A.** 70.1 µM

**Q.** What about the GI50 (SK-MEL-2 melanoma) of the same molecule?
**A.** 24.8 µM

**Q.** What about the TGI (SK-MEL-2 melanoma) of the same molecule?
**A.** > 100 µM

**Q.** What about the GI50 (SK-OV-3 ovarian) of the same molecule?
**A.** 2.57 µM

**Q.** What about the TGI (SK-OV-3 ovarian) of the same molecule?
**A.** 7.41 µM

**Q.** And the GI50 (HCT-15 colon)?
**A.** 6.66 µM

**Q.** What about the TGI (HCT-15 colon) of the same molecule?
**A.** 22.7 µM

**Q.** What about the GI50 (OVCAR-4 ovarian) of the same molecule?
**A.** 23.5 µM

**Q.** What about the TGI (OVCAR-4 ovarian) of the same molecule?
**A.** > 100 µM

**Q.** What about the GI50 (UO-31 renal) of the same molecule?
**A.** 0.136 µM

**Q.** What about the TGI (UO-31 renal) of the same molecule?
**A.** 0.306 µM

**Q.** And the GI50 (SN12C renal)?
**A.** 3.94 µM

**Q.** What about the TGI (SN12C renal) of the same molecule?
**A.** > 100 µM

**Q.** What about the GI50 (OVCAR-8 ovarian) of the same molecule?
**A.** 3.06 µM

**Q.** And the TGI (OVCAR-8 ovarian)?
**A.** > 100 µM

**Q.** What about the GI50 (K-562 leukemia) of the same molecule?
**A.** 3.95 µM

**Q.** And the TGI (K-562 leukemia)?
**A.** > 100 µM

**Q.** What about the GI50 (SF-539 CNS) of the same molecule?
**A.** 1.75 µM

**Q.** And the TGI (SF-539 CNS)?
**A.** 3.28 µM

**Q.** And the GI50 (OVCAR-5 ovarian)?
**A.** 4.77 µM

**Q.** What about the TGI (OVCAR-5 ovarian) of the same molecule?
**A.** > 100 µM
